“Also recorded” adds a separate entry of the source.
Experiments:
SKOV3 cells = assay: Blocking study: competition with uptake of fluorescent sigma-2 ligand SW120, flow cytometry; format: cell-based; conditions: SKOV3 cells pretreated 30 min with increasing concentrations, then 10 nM SW120 for 30 min
Protocol: Figure 1 Compound structures and cell binding characteristics of SW IV-134. (A) The chemical structures of sigma-2 ligand SW43, the SMAC peptidomimetic SW IV-52, and the chemical conjugate SW IV-134. Note that the chirality of SW IV-52 is fully retained in the drug conjugate (asterisks). […] SKOV3 cells were pretreated with increasing concentration of SW IV-134, followed by incubation with SW120, prior to analysis by flow cytometry.
SKOV3 cells (3 × 10^4/well) were seeded into 6 cm plates for 24 hours before treatment. The cells were incubated with 5, 10, 50, and 100 μM doses of SW IV-134 for 30 minutes at 37°C. After this step, 10 nM SW120 was added to the cell culture medium containing SW IV-134. After 30 minute incubation at 37°C, cells were washed twice with phosphate buffered saline (PBS) and harvested with 0.05% trypsin EDTA (Life Technologies, Grand Island, NY). The cells were centrifuged at 1000 × g for 5 minutes and pellets washed twice with PBS. Internalization of SW120 was determined by flow cytometer (FACSCalibur, BD Biosciences, San Jose, CA).
Supplementary file 1476-4598-13-50-S2.pdf: Additional file 2: Figure S1 Receptor binding characteristics of the individual components of SW IV-134. SKOV3 cells were pretreated with increasing concentration of (A) SW43 and (B) SW IV-52, followed by incubation with SW120, prior to analysis by flow cytometry. […] Click here for file

[1] = test system: ovarian cancer cell lines (SKOV3, OVCAR3, HEY A8, HEY A8 MDR); assay: Cell viability (CellTiter-Glo) in a panel of four ovarian cancer cell lines; format: cell-based; conditions: increasing doses, 18 hours
Protocol: (A) SKOV3, (B) OVCAR3 (C) HEY A8 and (D) HEY A8 MDR cells were treated with increasing doses of SW43, SW IV-52, SW43 plus SW IV-52, and SW IV-134 for 18 hours. Cell viability was determined by CellTiter-Glo assays [p < 0.015 (A), NS (B), p < 0.017 (C), p < 0.034 (D), one-way ANOVA].
Cells (1 × 10^4) were seeded into 96 well plates. Treatment as described in the figure legends was initiated the following day. Cell viability was determined 18 hours after treatment using CellTiter-Glo Luminiscent Viability Assay (Promega, Madison, WI). Data were recorded with a SpectraMax Gemini microplate spectrofluorometer, Molecular Devices (Silicon Valley, CA).

[2] = test system: mouse 66 (mammary carcinoma) or MDA-MB-435 cells (human melanoma); set-up: method as in PMID 22201533; conditions: nude mice bearing mouse 66 or MDA-MB-435 tumors; cited from earlier work

SMILES | Blocking of SW120 uptake (SKOV3 cells) | Killing activity (cell viability) [1] | Tumor-selective uptake of SW120 in vivo [2]
CN[C@@H](C)C(=O)N[C@H](C(=O)N1CCC[C@H]1C(=O)N[C@@H]1CCCc2ccccc21)C(C)(C)C [SW IV-52] | nearly incapable of blocking the uptake of SW120; also recorded: nearly incapable of interfering with the uptake of SW120 | minimal single-agent activity at concentrations up to 200 μM | –
COc1ccc(C)cc1NC(=O)OC1CC2CCCC(C1)N2CCCCCCCCCCNc1ccc([N+](=O)[O-])c2nonc12 (stereo not drawn) [SW120] | – | – | taken up selectively by proliferating tumor cells and not by the generally quiescent peripheral blood mononuclear cells
